Laboratory results taken from patent US5063210A, “Use of sulfated polysaccharides to decrease cholesterol and fatty acid absorption” (priority 1989, dated 1991).

Key:
Type in all cases: biochemical
[1] = target: human 100 kDa cholesterol esterase; experiment: Inhibition of triolein hydrolysis by the human 100 kDa cholesterol esterase; details: substrate triolein instead of cholesteryl oleate
Experimental: Alginic acid from Macrocystis pyrifera (kelp) was dissolved in water at a concentration of 1 mg/ml. This stock solution was used to prepare various polysaccharide concentrations down to 10^-5 mg/ml. Human pancreatic cholesterol esterase was purified as described by Bosner et al., Proc. Nat'l. Acad. Sci., 85, 7438 (1988). To measure cholesterol esterase inhibition by alginic acid, 50 μl of cholesterol esterase (10 μg/ml), 75 μl of phosphatidylcholine vesicles containing cholesteryl ^14 C-oleate (1 mM 2,000 CPM/nmole), 25 μl of 100 mM taurocholate, 120 μl of 150 mM Tris, pH 7.5 and 30 μl of test alginic acid solution were incubated at 37° C. for fifteen minutes. The assay was quenched by placing the reaction vessels in a 4° C. ice bath and by adding 0.6 ml of 0.3 N NaOH and 3 ml of benzene/chloroform/methanol (1.0/1.2/0.5). The quenched reactions were vortexed for 30 seconds, centrifuged at 3,000 g for 15 minutes and 1 ml of the upper aqueous phase was added to 7 ml of Aquasol-2 (DuPont) with 0.025 ml of 6 N HCl. These mixtures were vortexed for one minute and counted for ^14 C-oleate. The counts were compared to a sample which contained cholesterol esterase but no alginic acid to determine the percentage of inhibition.
(The same assay procedure was used as described in Part I, only triolein was used instead of cholesteryl oleate.) As shown in the table below, the IC50 for inhibition of triolein hydrolysis is nearly the same as that for cholesteryl oleate hydrolysis.

[2] = system: human pancreatic cholesterol esterase; experiment: Inhibition of human pancreatic cholesterol esterase, hydrolysis of cholesteryl 14C-oleate in phosphatidylcholine vesicles; details: for IC50, inhibition of cholesterol esterase (cholesteryl oleate hydrolysis) / IC50: substrate cholesteryl 14C-oleate, 37° C., 15 min; for IC50: molar values from assumed molecular weights
Experimental: Alginic acid from Macrocystis pyrifera (kelp) was dissolved in water at a concentration of 1 mg/ml. This stock solution was used to prepare various polysaccharide concentrations down to 10^-5 mg/ml. […] To measure cholesterol esterase inhibition by alginic acid, 50 μl of cholesterol esterase (10 μg/ml), 75 μl of phosphatidylcholine vesicles containing cholesteryl ^14 C-oleate (1 mM 2,000 CPM/nmole), 25 μl of 100 mM taurocholate, 120 μl of 150 mM Tris, pH 7.5 and 30 μl of test alginic acid solution were incubated at 37° C. for fifteen minutes. The assay was quenched by placing the reaction vessels in a 4° C. ice bath and by adding 0.6 ml of 0.3 N NaOH and 3 ml of benzene/chloroform/methanol (1.0/1.2/0.5). The quenched reactions were vortexed for 30 seconds, centrifuged at 3,000 g for 15 minutes and 1 ml of the upper aqueous phase was added to 7 ml of Aquasol-2 (DuPont) with 0.025 ml of 6 N HCl. These mixtures were vortexed for one minute and counted for ^14 C-oleate. The counts were compared to a sample which contained cholesterol esterase but no alginic acid to determine the percentage of inhibition.
To measure pancreatic cholesterol esterase inhibition by sulfated agar, 50 μl of pancreatic cholesterol esterase (10 μg/ml), 75 μl of phosphatidylcholine vesicles containing cholesteryl ^14 C-oleate (1 mM 2,000 CPM/nmole), 25 μl of 100 mM taurocholate, 120 μl of 150 mM Tris, pH 7.5 and 30 μl of test sulfated agar solution were incubated at 37° C. for fifteen minutes. The assay was quenched by placing the reaction vessels in a 4° C. ice bath and by adding 0.6 ml of 0.3 N NaOH and 3 ml of benzene/chloroform/methanol (1.0/1.2/0.5). The quenched reactions were vortexed for 30 seconds, centrifuged at 3,000 g for 15 minutes and 1 ml of the upper aqueous phase was added to 7 ml of Aquasol-2 (DuPont) with 0.025 ml of 6 N HCl. These mixtures were vortexed for one minute and counted for ^14 C-oleate. The counts were compared to a sample which contained cholesterol esterase but no sulfated agar to determine the percentage of inhibition.

cholesterol esterase = experiment: Baking stability: cholesterol esterase inhibition by water extract of a baked corn muffin containing the inhibitor; details: baked fifteen minutes in a 400° oven
Experimental: The sulfated polysaccharides described here retain their inhibitory activity for prolonged periods at elevated temperatures. […] For example, 109 mg of cellulose sulfate were added to 198 gm (7 oz) of corn muffin mix (Gold Medal®) and the solid ingredients were thoroughly mixed together. After the addition of one egg and one-third cup milk, the muffin mix was stirred fifteen times. The mixture was poured into nine muffin tins and baked for fifteen minutes in a 400° oven. The next day one muffin was broken up, added to 100 ml of water and allowed to stand for fifteen minutes. The mixture was centrifuged and the clear supernatant was assayed for the presence of cholesterol esterase inhibition. The IC50 of this solution was achieved when this solution was diluted 10^3 -10^4 times.

Substance	IC50 [1]	Enhancement Factor ([2]; IC50 of alginic acid relative to IC50 of the sulfated derivative)	IC50, inhibition of cholesterol esterase (cholesteryl oleate hydrolysis) [2]	IC50 [2]	Stability of inhibitory activity under baking conditions / elevated temperatures (cholesterol esterase)	Inhibition of cholesterol esterase (in words) [2]
Alginic acid	42 nM	1.0	4 µg/mL	20 nM	–	–
Cellulose Sulfate	0.06 nM	–	–	0.02 nM	stable under baking conditions	–
Chitin Sulfate	0.14 nM	–	–	0.06 nM	–	–
Chitosan Sulfate	0.16 nM	–	0.015 µg/mL	0.03 nM	–	–
agar [native (unsulfated) agar]	–	–	–	30 nM	–	–
pectin [native, unsulfated pectin]	–	–	–	–	–	does not inhibit cholesterol esterase
